# Results reported in patent US7199113B2, “Pharmaceutically active compounds and methods of use thereof” (priority 1998, dated 2007).
# Tests used:
# [1] = biological target: T1, TF (243 form lipidated or 219 form unlipidated) (Homo sapiens, UniProt P13726); test: Isothermal calorimetry analysis of binding to TF
# T1 construct: made in house; host or cells: E. coli (stated for the 243-aa form)
# TF/VIIa complex = biological target: T2, TF/VIIa complex (Homo sapiens, UniProt P13726); test: TF/VIIa-dependent FIX activation assay; type: biochemical; details: statement on FIG. 3
# T2 construct: Truncated recombinant human tissue factor (e.g. composed of 243 amino acids) is expressed in E. coli; host or cells: E. coli (TF)
# T2 sequence (P13726 33-275 limits assumed): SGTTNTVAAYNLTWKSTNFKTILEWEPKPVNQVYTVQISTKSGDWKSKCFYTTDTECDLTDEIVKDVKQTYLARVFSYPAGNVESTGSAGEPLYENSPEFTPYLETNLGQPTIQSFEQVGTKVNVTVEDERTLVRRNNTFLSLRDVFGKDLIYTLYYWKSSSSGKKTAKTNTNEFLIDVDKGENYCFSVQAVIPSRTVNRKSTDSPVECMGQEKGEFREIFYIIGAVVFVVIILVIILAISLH
# T2 sequence (P08709 61-212 partner limits assumed): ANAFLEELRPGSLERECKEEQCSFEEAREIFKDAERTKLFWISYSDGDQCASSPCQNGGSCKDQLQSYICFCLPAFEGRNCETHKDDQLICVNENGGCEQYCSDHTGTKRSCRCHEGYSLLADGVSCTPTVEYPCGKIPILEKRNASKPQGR
# T2 sequence (P08709 213-466 partner limits assumed): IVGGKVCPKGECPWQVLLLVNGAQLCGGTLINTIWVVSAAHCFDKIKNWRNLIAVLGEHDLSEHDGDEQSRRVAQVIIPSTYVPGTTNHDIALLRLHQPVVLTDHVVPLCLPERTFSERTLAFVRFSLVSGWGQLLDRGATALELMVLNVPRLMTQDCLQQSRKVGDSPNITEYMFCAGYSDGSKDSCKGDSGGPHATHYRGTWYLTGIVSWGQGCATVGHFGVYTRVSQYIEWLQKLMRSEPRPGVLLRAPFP
# Experimental: In a more particular embodiment, the standard assay preferably includes the following steps: • 1) admixing in a suitable assay solution about 0.7 nM TF/VIIa complex with 300 nM factor IX and 1000 nM factor X, and from between about 0.5 μl to about 10 μl of at least one compound to be tested (optionally dissolved in an appropriate vehicle such as water or dimethylsulfoxide (DMSO)) and incubating the solution at 37° C. from between about a few minutes up to about an hour under conditions suitable for forming FIXa and FXa; • 2) contacting the solution with a suitable chelating agent such as EDTA to stop FIX activation; • 3) contacting the solution with a chromogenic substrate specific for the FXa (e.g., Spectrozyme FXa) and incubating same at 37° C.; and • 4) detecting chromophore in the solution as being indicative of the factor IX activation.
# TF/VIIa is not only able to activate FX, but is also able to convert FIX to FIXa. To examine whether the two antagonists 1 and 2 were able to block FIX activation catalyzed by TF/VIIa. FIX activation experiment was conducted. To each well of a 96-well plate, 5 μl of diluted DMSO or compound was added, followed by 45 μl of TF/VIIa (0.67 nM). After mixing and incubating for 15 minutes at 37° C., 10 μl of FIX (300 nM) was added and incubated for 10 minutes at 37° C. 10 μl of EDTA ([…] in 144 mM HEPES, […], 0.576% BSA, pH adjusted to 7.5) was added, followed by addition of 10 μl of FX (1000 nM), 10 μl of polylysine, and 10 μl of Spectrozyme FXa (6 mM). After 3 hour incubation at 37° C., absorbance at 405 nm was measured following addition of 20 μl of 50% acetic acid. The percent inhibition of TF/VIIa-dependent FIX activation was calculated from OD405 nm values in the absence and presence of a compound.
# [2] = biological target: T3, human recombinant TF/VIIa complex (lipidated) (Homo sapiens, UniProt P13726); test: TF/VIIa-dependent FX activation assay; type: biochemical; details: statement on FIG. 3
# T3 construct: Truncated recombinant human tissue factor (e.g. composed of 243 amino acids) is expressed in E. coli; host or cells: E. coli (TF)
# T3 sequence (P13726 33-275 limits assumed): as the sequence (P13726 33-275 limits assumed) above
# T3 sequence (P08709 61-212 partner limits assumed): as the sequence (P08709 61-212 partner limits assumed) above
# T3 sequence (P08709 213-466 partner limits assumed): as the sequence (P08709 213-466 partner limits assumed) above
# Experimental: A more particular example of the primary screening assay discussed previously is as follows. The assay is standard for measuring TF/VIIa-dependent factor X activation. […] In a more preferred embodiment, the primary screening preferably includes the following steps. • 1) admixing in a suitable assay solution about 0.1 nM of human recombinant TF/VIIa complex (lipidated), about 180 nM human FX, and between from about 0.5 μl to about 10 μl of at least one compound to be tested (optionally dissolved in an appropriate vehicle such as water or dimethylsulfoxide (DMSO)) and incubating the reaction at 37° C. for a few minutes up to about an hour or more, • 2) contacting the solution with a suitable chelating agent such as ethylenediaminietetra acetic acid (EDTA) to reduce or stop factor X activation, • 3) contacting the solution with a detectable amount of a chromogenic substrate specific for FXa (e.g., Spectrozyme FXa or S-2765) and incubating same at 37° C.; and • 4) detecting chromophore produced in the solution as being indicative of the factor X activation.
# The primary screening for compounds that inhibit tissue factor/factor VIIa (TF/VIIa) is based on TF/VIIa-dependent FX activation assay (See flow chart in FIG. 1 of the drawings). In this assay, the ability of TF/VIIa complex to activate FX is determined in two discontinuous stages. […] In the second stage (FXa activity assay), EDTA is added at indicated times to the FX activation mixture to chelate calcium, thus leading to the termination of FX→FXa conversion. Calcium is required for TF/VIIa activity. The activity of FXa is then measured by FXa-specific chromogenic substrates such as S-2222, S-2765, or Spectrozyme FXa. In the primary screening, compounds from a previously prepared chemical library are first tested at relatively high concentrations (˜0.833 mM) in TF/VIIa-dependent FX activation assay to identify hits of potential TF pathway antagonists (see FIG. 1). However, it is evident that the inhibition of TF/VIIa-dependent FX activation by a compound in this enzyme-coupled assay can be attributed to effects of the compound on TF/VIIa and/or FXa activities. Thus, secondary screening tests are designed to determine how inhibition takes place and the inhibition mechanism. In secondary screening experiments, effects of those compounds identified from primary screening are tested on catalytic activities of factor VIIa (FVIIa), factor IXa (FIXa), factor Xa (FXa), thrombin, Russell's viper venom (RVV), and trypsin.
# Primary screening was done in duplicate in 96-well plates using the TF/VIIa-dependent FX activation assay. All compounds to be screened were dissolved in dimethyl sulfoxide (DMSO), other reagents were prepared or diluted in 25 mM HEPES-NaOH, 5 mM CaCl2, 150 mM NaCl, 0.1% BSA, pH 7.5. For assays where TF was used, purified human recombinant TF (100 nM) was first lipidated with phosphatidylcholine (0.07 mg/ml) and phosphatidylserine (0.03 mg/ml) in 50 mM Tris-HCl, pH 7.5, 0.1% bovine serum albumin (BSA) for 30 minutes at 37° C. A stock solution of TF/VIIa complex was then prepared by combining equal volumes of 100 nM lipidated TF and 100 nM FVIIa The complex was incubated at 37° C. for 30 minutes and then was aliquoted and stored at −70° C. for future uses.
# For screening assays, 5 μl of each compound (about 10 mM in DMSO) or DMSO were placed in each well of a 96-well plate, followed by adding 45 μl of TF/VIIa complex (0.1 nM). The components in each well were mixed either with pipette tips or by shaking the plate on a Lab-Line titer plate shaker for 30 seconds. After 15 minutes incubation of the plate at a 37° C., 10 μl of human FX (180 nM) was added to each well and mixed as above. The plate was then incubated at 37° C. for 3 to 15 minutes, followed by addition of 10 μl of EDTA (400 mM in 144 mM HEPES, 864 mM NaCl, 0.576% BSA, pH adjusted to 7.5) to each well to terminate FX activation. […]
# T1 sequence (P13726 33-251): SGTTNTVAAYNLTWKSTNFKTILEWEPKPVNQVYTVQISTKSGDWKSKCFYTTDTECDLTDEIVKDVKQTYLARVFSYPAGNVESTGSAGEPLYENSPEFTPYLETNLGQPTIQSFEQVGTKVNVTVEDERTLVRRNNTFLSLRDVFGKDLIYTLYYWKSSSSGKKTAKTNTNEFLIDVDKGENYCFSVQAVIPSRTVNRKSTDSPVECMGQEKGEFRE
Compound,binding to TF [1],blocking activity in standard assay for TF/VIIa-dependent factor IX activation (TF/VIIa complex),blocking activity in standard assay for TF/VIIa-dependent factor X activation [2]
1-(bisphosponate)-2-amino(3-hydroxyphenyl)ethyl [Compound 1],directly observed,–,–
Nc1ccc(NCC(P(=O)(O)O)P(=O)(O)O)cc1 [Compound 3],–,good blocking activity,good blocking activity
Cc1ccc(NCC(P(=O)(O)O)P(=O)(O)O)cc1 [Compound 4],–,good blocking activity,good blocking activity
O=P(O)(O)C(COc1ccccc1)P(=O)(O)O [Compound 6],–,good blocking activity,good blocking activity
"NCCCC(O)(P(=O)(O)O)P(=O)(O)O [Fosamax, reference compound]",–,good blocking activity,good blocking activity
